# ChEMBL document CHEMBL1201862, “PubChem BioAssay data set” (2004)
#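 Test compounds were applied to cells in 96-well plates for 48 hours at 5 doses. GI50 = concentration required for 50% inhibition of growth.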 Active and inactive are the calls of the source. Cut-off read from the data, not from the text of the source: active = GI50 up to about 1.1 µM and inactive = higher.
# Legend:
# Assay in all cases: growth of human tumour cells (NCI), 48 h
# T47D = tested on: T47D
# A498 = tested on: A498
# Malme-3M = tested on: Malme-3M
# SN12C = tested on: SN12C
# NCI-H522 = tested on: NCI-H522
# HL-60 = tested on: HL-60
# A549 = tested on: A549
# NCI-H23 = tested on: NCI-H23
# MDA-N = tested on: MDA-N
# MDA-MB-435 = tested on: MDA-MB-435
# U-251 = tested on: U-251
# NCI-H226 = tested on: NCI-H226
# DU-145 = tested on: DU-145
# SK-MEL-5 = tested on: SK-MEL-5
# OVCAR-3 = tested on: OVCAR-3
# K562 = tested on: K562
# KM12 = tested on: KM12
# Hs-578T = tested on: Hs-578T
# TK-10 = tested on: TK-10
SMILES,GI50 (T47D),GI50 (A498),GI50 (Malme-3M),GI50 (SN12C),GI50 (NCI-H522),GI50 (HL-60),GI50 (A549),GI50 (NCI-H23),GI50 (MDA-N),GI50 (MDA-MB-435),GI50 (U-251),GI50 (NCI-H226),GI50 (DU-145),GI50 (SK-MEL-5),GI50 (OVCAR-3),GI50 (K562),GI50 (KM12),GI50 (Hs-578T),GI50 (TK-10)
O=P(OCc1ccccc1)(OCc1ccccc1)C(O)/C=C/c1ccccc1 (stereo not given),33.7 µM (inactive),17.9 µM (inactive),19.6 µM (inactive),19.8 µM (inactive),23.8 µM (inactive),19.8 µM (inactive),32.9 µM (inactive),20.2 µM (inactive),17.3 µM (inactive),17.3 µM (inactive),13.1 µM (inactive),34.8 µM (inactive),42.9 µM (inactive),19.3 µM (inactive),20.9 µM (inactive),34.2 µM (inactive),19.8 µM (inactive),17 µM (inactive),–
COc1ccc(C(SCCO)(c2ccccc2)c2ccccc2)cc1,9.84 µM (inactive),17.2 µM (inactive),18.9 µM (inactive),12.8 µM (inactive),13.6 µM (inactive),22.8 µM (inactive),12.2 µM (inactive),16.9 µM (inactive),8.26 µM (inactive),10.5 µM (inactive),13.1 µM (inactive),12.7 µM (inactive),13.6 µM (inactive),10.1 µM (inactive),14 µM (inactive),12.9 µM (inactive),14.1 µM (inactive),22.3 µM (inactive),18.8 µM (inactive)
O/N=C1/C2CC3CC1(c1ccccc1)CC(/C3=N/O)/C2=N\O (stereo not given),> 100 µM (inactive),> 100 µM (inactive),> 100 µM (inactive),> 100 µM (inactive),> 100 µM (inactive),> 100 µM (inactive),> 100 µM (inactive),> 100 µM (inactive),> 100 µM (inactive),> 100 µM (inactive),> 100 µM (inactive),> 100 µM (inactive),> 100 µM (inactive),> 100 µM (inactive),> 100 µM (inactive),> 100 µM (inactive),> 100 µM (inactive),> 100 µM (inactive),> 100 µM (inactive)
CCOC(=O)CCC(NC(=O)c1ccc(Nc2nc3ccccc3nc2C(=O)OCC)s1)C(=O)OCC (stereo not given),> 100 µM (inactive),> 100 µM (inactive),> 100 µM (inactive),> 100 µM (inactive),> 100 µM (inactive),36.6 µM (inactive),88.1 µM (inactive),–,> 100 µM (inactive),> 100 µM (inactive),> 100 µM (inactive),21.1 µM (inactive),> 100 µM (inactive),> 100 µM (inactive),> 100 µM (inactive),> 100 µM (inactive),85.1 µM (inactive),56.4 µM (inactive),> 100 µM (inactive)
CC(/C=C/c1ccccc1)=N\NC(=S)N/N=C(C)/C=C/c1ccccc1,13.9 µM (inactive),1.24 µM (inactive),10 µM (inactive),34.4 µM (inactive),25.3 µM (inactive),8.67 µM (inactive),17.9 µM (inactive),23.7 µM (inactive),25.5 µM (inactive),15.5 µM (inactive),4.59 µM (inactive),21 µM (inactive),31.2 µM (inactive),13.8 µM (inactive),5.64 µM (inactive),4.86 µM (inactive),–,> 100 µM (inactive),20.5 µM (inactive)
O=c1c(C(c2ccc([N+](=O)[O-])cc2)c2c(O)oc3ccccc3c2=O)c(O)oc2ccccc12,> 100 µM (inactive),> 100 µM (inactive),> 100 µM (inactive),> 100 µM (inactive),> 100 µM (inactive),> 100 µM (inactive),–,> 100 µM (inactive),> 100 µM (inactive),> 100 µM (inactive),> 100 µM (inactive),> 100 µM (inactive),> 100 µM (inactive),> 100 µM (inactive),> 100 µM (inactive),10 µM (inactive),> 100 µM (inactive),> 100 µM (inactive),> 100 µM (inactive)
CC(C)[Si](OC1=CCC[C@H]2NC(=O)[C@@H](Cc3ccccc3)[C@@]12C)(C(C)C)C(C)C,2.79 µM (inactive),5.79 µM (inactive),12.8 µM (inactive),3.23 µM (inactive),3.46 µM (inactive),2.86 µM (inactive),2.98 µM (inactive),4.98 µM (inactive),3.95 µM (inactive),4.04 µM (inactive),3.62 µM (inactive),–,10.2 µM (inactive),3.37 µM (inactive),5.79 µM (inactive),3.2 µM (inactive),3.84 µM (inactive),4.67 µM (inactive),9.98 µM (inactive)
COc1cc(/C=C2\Cc3cc(OC)c(OC)cc3C2=O)cc(OC)c1,> 100 µM (inactive),36.8 µM (inactive),15.8 µM (inactive),> 74.1 µM (inactive),3.74 µM (inactive),3.18 µM (inactive),> 96.6 µM (inactive),17.6 µM (inactive),0.771 µM (active),1.04 µM (active),35.8 µM (inactive),> 100 µM (inactive),> 100 µM (inactive),10.8 µM (inactive),> 92.3 µM (inactive),0.479 µM (active),–,22 µM (inactive),48 µM (inactive)
O=C(N/N=C(COc1cccc(Cl)c1)\N=C\c1cccnc1)c1ccncc1,32.5 µM (inactive),40.6 µM (inactive),> 100 µM (inactive),> 100 µM (inactive),63.7 µM (inactive),> 100 µM (inactive),> 100 µM (inactive),> 100 µM (inactive),> 100 µM (inactive),> 100 µM (inactive),> 100 µM (inactive),93.5 µM (inactive),> 100 µM (inactive),–,> 100 µM (inactive),> 100 µM (inactive),> 100 µM (inactive),83.4 µM (inactive),> 100 µM (inactive)
O=C(O)CCC(NC(=O)/C(=C/c1ccccc1)NC(=O)c1ccccc1)C(=O)O (stereo not given),> 100 µM (inactive),> 100 µM (inactive),> 100 µM (inactive),> 100 µM (inactive),> 100 µM (inactive),> 100 µM (inactive),> 100 µM (inactive),> 100 µM (inactive),> 100 µM (inactive),> 100 µM (inactive),–,> 100 µM (inactive),> 100 µM (inactive),> 100 µM (inactive),> 100 µM (inactive),> 100 µM (inactive),> 100 µM (inactive),> 100 µM (inactive),> 100 µM (inactive)
O=C(N/N=C(COc1ccc(Cl)cc1)\N=C\c1ccncc1)c1ccncc1,96.4 µM (inactive),45.9 µM (inactive),> 100 µM (inactive),> 100 µM (inactive),84.5 µM (inactive),> 100 µM (inactive),> 100 µM (inactive),> 100 µM (inactive),> 100 µM (inactive),> 100 µM (inactive),> 100 µM (inactive),> 100 µM (inactive),> 100 µM (inactive),–,> 100 µM (inactive),> 100 µM (inactive),> 100 µM (inactive),> 100 µM (inactive),> 100 µM (inactive)
